Test: xn = mol fraction of the nth substance listed
Conditions: Liquid, Vibrating tube method, x1 = 1

CCC(C)O (centres undefined) [butan-2-ol] + CC(C)OC(C)C
mass density [kg/m3]
Conditions | 293.15 K | 298.15 K | 313.15 K | 333.15 K | 353.19 K | 373.24 K | 393.28 K
100 kPa | 806.7 | 802.6 | 789.6 | 770.8 | 750.3 | – | –
1000 kPa | 807.4 | 803.3 | 790.3 | 771.8 | 751.4 | 729.1 | 704.8
5000 kPa | 810.4 | 806.4 | 793.7 | 775.7 | 756 | 734.5 | 711.3
10000 kPa | 814 | 810.1 | 797.8 | 780.3 | 761.3 | 740.8 | 718.8
15000 kPa | 817.4 | 813.7 | 801.6 | 784.7 | 766.4 | 746.6 | 725.6
20000 kPa | 820.7 | 817 | 805.3 | 788.9 | 771 | 751.9 | 731.7
25000 kPa | 823.9 | 820.2 | 808.6 | 792.7 | 775.4 | 757 | 737.4
30000 kPa | 826.9 | 823.4 | 812.1 | 796.4 | 779.5 | 761.6 | 742.7
35000 kPa | 829.8 | 826.4 | 815.3 | 800 | 783.5 | 766.1 | 747.8
40000 kPa | 832.7 | 829.2 | 818.4 | 803.5 | 787.2 | 770.3 | 752.5
45000 kPa | 835.4 | 832 | 821.3 | 806.6 | 790.8 | 774.4 | 757
50000 kPa | 838.1 | 834.7 | 824.3 | 809.8 | 794.4 | 778.1 | 761.2
55000 kPa | 840.6 | 837.4 | 827.1 | 812.8 | 797.7 | 781.8 | 765.4
60000 kPa | 843.2 | 839.9 | 829.8 | 815.8 | 801 | 785.3 | 769.2
65000 kPa | 845.6 | 842.4 | 832.5 | 818.7 | 804.1 | 788.8 | 772.9
70000 kPa | 848 | 844.8 | 835 | 821.4 | 807.2 | 792.1 | 776.6
80000 kPa | 852.6 | 849.5 | 839.9 | 826.8 | 812.9 | 798.4 | 783.4
90000 kPa | 857.1 | 854.1 | 844.7 | 831.9 | 818.3 | 804.3 | 789.8
100000 kPa | 861.2 | 858.3 | 849.1 | 836.7 | 823.5 | 809.8 | 795.8
110000 kPa | 865.3 | 862.4 | 853.5 | 841.3 | 828.5 | 815.1 | 801.5
120000 kPa | 869.2 | 866.3 | 857.6 | 845.6 | 833.1 | 820.1 | 806.8
130000 kPa | 873 | 870.1 | 861.5 | 849.9 | 837.6 | 824.9 | 811.9
140000 kPa | 876.6 | 873.9 | 865.4 | 853.9 | 842 | 829.5 | 816.8

From the NIST ThermoML archive (doi:10.1016/j.jct.2016.10.009)
